Data as given in article PMC8448819, “The Arabidopsis MIK2 receptor elicits immunity by sensing a conserved signature from phytocytokines and microbes” (Nature Communications, 2021).

How the values were obtained:
Type in all cases: in vivo, Arabidopsis thaliana
[1] = test system: WRKY30, WRKY33 and CYP81F2 expression, WT seedlings; experiment: RT-qPCR of defense genes, WT
[2] = test system: mik2-like, rlk7, pepr1,2, hae/hsl2 and fls2 mutant seedlings; experiment: Root growth assay, other receptor kinase mutants; details: Supplementary Fig. 4c
Excerpt: The Arabidopsis thaliana accession Columbia-0 (Col-0) was used as wild type (WT). T-DNA insertion mutants of mik2-1 (SALK_061769), mik2-2 (SALK_046987), mik2-like (SALK_112341), and rlk7-3 (SALK_120595) were obtained from the Nottingham Arabidopsis Stock Centre (NASC). The fls2 (SALK_141277), bak1-4, bik1-1/pbl1-1, bak1-5/serk4-1, rbohd mutants, and the transgenic line expressing p35S::GFP have been reported previously[19],[62],[63]. The hae/hsl2 mutant was kindly provided by Dr. Reidunn B. Aalen (University of Oslo, Norway), the pepr1-2/pepr2-2 (pepr1,2) mutant by Dr. Zhi Qi (Inner Mongolia University, China), the scoop12 mutant by Dr. Sébastien Aubourg (INRA, France), a transgenic line expressing p35S::Aequorin by Dr. Marc Knight (Durham University, UK), transgenic line expressing pMYB51::GUS by Dr. Frederick M. Ausubel (Harvard Medical School, USA). […]
(§1) Cold stratified seeds were surface-sterilized with 70% (v/v) ethanol for 5 min and were sown on ½MS plates with or without peptides at indicated concentrations. Ten-day-old seedlings grown on plates vertically in a growth chamber were photographed, and the root lengths of seedlings were measured using Image J (http://rsb.info.nih.gov/ij/).

[3] = test system: Arabidopsis WT (Col-0) seedlings
[4] = test system: RLK7^ECD-MIK2^TK/rlk7 and RLK7/rlk7 transgenic seedlings; experiment: Root growth assay, rlk7, RLK7/rlk7 and RLK7^ECD-MIK2^TK/rlk7 seedlings
Excerpt: The BAK1 (AT4G33430), SERK4 (AT2G13790), BIK1 (AT2G39660), and MIK2 (AT4G08850) coding sequences (CDSs) were amplified by PCR from Col-0 cDNA using the primers containing BamHI at the 5′ end and StuI at the 3′ end. The PCR products were digested by BamHI and StuI, followed by ligation into the pHBT-FLAG or pHBT-HA vector to generate pHBT-35S::BAK1-FLAG, pHBT-35S::SERK4-FLAG, pHBT-35S::BIK1-HA, pHBT-35S::MIK2-HA, and pHBT-35S::MIK2-GFP constructs[24],[41],[62]. MIK2^ECD (residues 1–707) and BAK1^ECD (residues 1–220) were amplified by PCR from Col-0 cDNA and cloned into pFastBac-1 vector with a C-terminal 6× HIS tag[25],[62]. The fusion protein vectors carrying MIK2^ECD or BAK1^ECD were used for insect cell expression. To obtain the binary vector pCAMBIA1300-35S::RLK7, a 2907-bp RLK7 CDS was PCR-amplified from WT cDNA using gene-specific primers with KpnI and SalI at the 5′ and 3′ ends, respectively, followed by KpnI and SalI digestion and ligation into the pCAMBIA1300 vector. To generate the binary vector pCAMBIA1300 carrying the RLK7^ECD-MIK2^TK chimeric receptor gene, an 1824-bp fragment encoding RLK7^ECD was PCR-amplified from WT cDNA using a gene-specific forward primer with KpnI at the 5′ end and a gene-specific reverse primer with 8-bp overlapping sequence from the 5′ end of MIK2^TK, and a 1011-bp fragment encoding MIK2^TK using a gene-specific forward primer with 8-bp overlapping sequence from the 3′ end of RLK7 ^ECD and a gene-specific reverse primer with SalI at the 5′ end. RLK7^ECD was fused with MIK2^TK and inserted into the pUC19 vector using in-fusion recombinant enzymes (Clontech). […]
as §1

“PNGDIFTGPSGSGHGGGR [SCOOP10B, synthesized SCOOP peptide corresponding to the SxS motif]” was tested, and the “WRKY30, WRKY33 and CYP81F2 expression” value ([1]; 1 µM, 1 h, RT-qPCR) was “upregulation”, the “CYP81F2 expression (Fig. 3i)” value ([1]; repeat 1) was 82.36 and the “CYP81F2 expression (Fig. 3i)” value ([1]; repeat 2) was 146.22. The “CYP81F2 expression (Fig. 3i)” value ([1]; repeat 3) was 132.08, the “CYP81F2 expression (Fig. 3i)” value ([1]; repeat 4) was 187.19 and the “response of fls2” value ([2]; fls2, root growth) was “responded to SCOOP10^B similarly to WT plants”. For the same substance, the “response of MIK2L, RLK7, PEPR1, PEPR2, HAE and HSL2 mutants” value ([2]; root growth) was “not involved in responsiveness to SCOOP10^B”, the “root growth retardation, concentration series, WT” value ([3]; 1 to 100 nM SCOOP10^B) was “more pronounced with the increased concentrations of SCOOP10^B from 1 to 100 nM” and the “concentration at which still active” value ([3]; in vivo) was 1 nM. The “root growth inhibition” value ([3]; in vivo) was “inhibited root growth to various degrees, with SCOOP10^B and 13 being the most active”.
For “RLASGP(OH)SPRGRGH [PIP1, secreted peptide, ligand of RLK7]”, the “root growth retardation” value ([4]; RLK7/rlk7 and RLK7^ECD-MIK2^TK/rlk7, 1 µM PIP1) was “restored the sensitivity to PIP1 treatment exhibiting root growth retardation”, the “brown roots and darkened root-hypocotyl junctions” value ([4]; RLK7^ECD-MIK2^TK/rlk7) was “brown roots and darkened root-hypocotyl junctions” and the “root growth retardation vs RLK7/rlk7” value ([4]; RLK7^ECD-MIK2^TK/rlk7, 1 µM PIP1) was “more substantial root growth retardation”.
